Source: the NIST ThermoML archive (doi:10.1016/j.jct.2010.06.009)

Assay: activity coefficient (dimensionless); of the first substance listed, at infinite dilution; xn = mol fraction of the nth substance listed
Settings: 101 kPa, Liquid, Chromatography, x1 = 0

c1ccccc1 [benzene] + CCCCC[n+]1ccccc1.O=S(=O)([N-]S(=O)(=O)C(F)(F)F)C(F)(F)F
Settings | activity coefficient
303.2 K | 0.98
312.6 K | 0.99
323.2 K | 1.01
333.1 K | 1.02
343.3 K | 1.03
353.5 K | 1.04

c1ccccc1 [benzene] + CCCC[n+]1ccccc1.O=S(=O)([N-]S(=O)(=O)C(F)(F)F)C(F)(F)F
Settings | activity coefficient
302.8 K | 1.33
312.6 K | 1.34
323.2 K | 1.35
333.2 K | 1.35
343.1 K | 1.35
353.3 K | 1.36

c1ccccc1 [benzene] + CC[n+]1ccccc1.O=S(=O)([N-]S(=O)(=O)C(F)(F)F)C(F)(F)F
Settings | activity coefficient
302.6 K | 1.5
313 K | 1.49
323.2 K | 1.47
333.1 K | 1.43
343 K | 1.39
353.1 K | 1.36

C1CCCCC1 [cyclohexane] + CCCCC[n+]1ccccc1.O=S(=O)([N-]S(=O)(=O)C(F)(F)F)C(F)(F)F
Settings | activity coefficient
303.2 K | 7.35
312.7 K | 6.67
323.4 K | 5.91
333.3 K | 5.3
343.3 K | 4.66
353.3 K | 4.06

C1CCCCC1 [cyclohexane] + CCCC[n+]1ccccc1.O=S(=O)([N-]S(=O)(=O)C(F)(F)F)C(F)(F)F
Settings | activity coefficient
302.9 K | 9.66
312.4 K | 8.64
323.2 K | 7.88
333.2 K | 6.7
343.3 K | 5.61
353.4 K | 4.72

C1CCCCC1 [cyclohexane] + CC[n+]1ccccc1.O=S(=O)([N-]S(=O)(=O)C(F)(F)F)C(F)(F)F
Settings | activity coefficient
302.8 K | 11.4
313.3 K | 9.56
323.1 K | 8.04
333 K | 6.76
342.9 K | 5.63
353 K | 4.65

CCO [ethanol] + CCCCC[n+]1ccccc1.O=S(=O)([N-]S(=O)(=O)C(F)(F)F)C(F)(F)F
Settings | activity coefficient
302.8 K | 2.09
313.5 K | 1.86
323.4 K | 1.67
333.3 K | 1.5
343.2 K | 1.35
353.4 K | 1.19

CCO [ethanol] + CCCC[n+]1ccccc1.O=S(=O)([N-]S(=O)(=O)C(F)(F)F)C(F)(F)F
Settings | activity coefficient
302.5 K | 2.67
313.4 K | 2.26
323.1 K | 2.02
333.1 K | 1.8
343.1 K | 1.61
352.9 K | 1.45

CCO [ethanol] + CC[n+]1ccccc1.O=S(=O)([N-]S(=O)(=O)C(F)(F)F)C(F)(F)F
Settings | activity coefficient
302.5 K | 2.63
313.1 K | 2.36
323 K | 2.13
332.9 K | 1.91
342.9 K | 1.71
353 K | 1.54

CCc1ccccc1 [ethylbenzene] + CCCCC[n+]1ccccc1.O=S(=O)([N-]S(=O)(=O)C(F)(F)F)C(F)(F)F
Settings | activity coefficient
303.1 K | 1.93
312.8 K | 1.95
323.4 K | 1.96
333.4 K | 1.98
343.3 K | 1.99
353.5 K | 2

CCc1ccccc1 [ethylbenzene] + CCCC[n+]1ccccc1.O=S(=O)([N-]S(=O)(=O)C(F)(F)F)C(F)(F)F
Settings | activity coefficient
302.8 K | 2.74
312.6 K | 2.75
323.3 K | 2.77
333.2 K | 2.77
343.2 K | 2.78
353.3 K | 2.78

CCc1ccccc1 [ethylbenzene] + CC[n+]1ccccc1.O=S(=O)([N-]S(=O)(=O)C(F)(F)F)C(F)(F)F
Settings | activity coefficient
303.4 K | 3.34
313.1 K | 3.36
323.2 K | 3.37
333.1 K | 3.39
343 K | 3.4
353.1 K | 3.41

CCCCCCC [heptane] + CCCCC[n+]1ccccc1.O=S(=O)([N-]S(=O)(=O)C(F)(F)F)C(F)(F)F
Settings | activity coefficient
303.2 K | 16.5
312.7 K | 14.6
323.4 K | 12.6
333.3 K | 11
343.3 K | 9.35
353.3 K | 7.98

CCCCCCC [heptane] + CCCC[n+]1ccccc1.O=S(=O)([N-]S(=O)(=O)C(F)(F)F)C(F)(F)F
Settings | activity coefficient
302.8 K | 21.8
312.4 K | 19.4
323.2 K | 16.8
333.2 K | 13.8
343.3 K | 11.4
353.4 K | 9.35

CCCCCCC [heptane] + CC[n+]1ccccc1.O=S(=O)([N-]S(=O)(=O)C(F)(F)F)C(F)(F)F
Settings | activity coefficient
302.8 K | 29.3
313.3 K | 23.1
323.1 K | 18.6
333 K | 14.7
342.9 K | 11.8
353 K | 9.37

C=CCCCC [hex-1-ene] + CCCCC[n+]1ccccc1.O=S(=O)([N-]S(=O)(=O)C(F)(F)F)C(F)(F)F
Settings | activity coefficient
302.9 K | 6.22
312.8 K | 5.46
322.6 K | 4.84
333.4 K | 4.17
343.4 K | 3.55
353.4 K | 3.08

C=CCCCC [hex-1-ene] + CCCC[n+]1ccccc1.O=S(=O)([N-]S(=O)(=O)C(F)(F)F)C(F)(F)F
Settings | activity coefficient
302.3 K | 8.87
312.9 K | 7.45
323 K | 6.38
332.8 K | 5.29
343 K | 4.33
352.8 K | 3.71

C=CCCCC [hex-1-ene] + CC[n+]1ccccc1.O=S(=O)([N-]S(=O)(=O)C(F)(F)F)C(F)(F)F
Settings | activity coefficient
302.6 K | 11.5
313.1 K | 9.42
322.9 K | 7.86
332.8 K | 6.54
342.9 K | 5.34
353 K | 4.4

CCCCCC [hexane] + CCCCC[n+]1ccccc1.O=S(=O)([N-]S(=O)(=O)C(F)(F)F)C(F)(F)F
Settings | activity coefficient
303.3 K | 9.78
312.7 K | 8.36
323.4 K | 7
333.3 K | 5.98
343.3 K | 5.01
353.3 K | 4.25

CCCCCC [hexane] + CCCC[n+]1ccccc1.O=S(=O)([N-]S(=O)(=O)C(F)(F)F)C(F)(F)F
Settings | activity coefficient
302.8 K | 11.9
312.4 K | 10.4
323.2 K | 8.58
332.8 K | 7.59
343.3 K | 5.85
353.4 K | 4.75

CCCCCC [hexane] + CC[n+]1ccccc1.O=S(=O)([N-]S(=O)(=O)C(F)(F)F)C(F)(F)F
Settings | activity coefficient
302.8 K | 13.8
313.3 K | 10.8
323.1 K | 8.59
333 K | 6.86
342.9 K | 5.46
353 K | 4.38

CO [methanol] + CCCCC[n+]1ccccc1.O=S(=O)([N-]S(=O)(=O)C(F)(F)F)C(F)(F)F
Settings | activity coefficient
302.8 K | 1.62
313.5 K | 1.46
323.4 K | 1.31
333.3 K | 1.18
343.2 K | 1.06
353.4 K | 0.94

CO [methanol] + CCCC[n+]1ccccc1.O=S(=O)([N-]S(=O)(=O)C(F)(F)F)C(F)(F)F
Settings | activity coefficient
302.7 K | 2
313.4 K | 1.73
323.1 K | 1.56
333.1 K | 1.39
343.1 K | 1.25
353.3 K | 1.12

CO [methanol] + CC[n+]1ccccc1.O=S(=O)([N-]S(=O)(=O)C(F)(F)F)C(F)(F)F
Settings | activity coefficient
302.5 K | 1.86
313.1 K | 1.69
323 K | 1.53
332.9 K | 1.38
342.9 K | 1.26
353 K | 1.13
